# Structures can show the parent of a compound that is named as a salt. Where two headings read alike, the source gives them in different places.
# Tests used:
# [1] = target: T1, SARS-CoV-2 PLpro (nsp3 1564–1878) (Severe acute respiratory syndrome coronavirus 2, UniProt P0DTD1); assay: biochemical; parameters: FRET-quenched peptide (Pro3) cleavage by PLpro, 10 min pre-incubation, slope over 20 min, normalised to no-compound control; settings: high concentration screen, read-out: % of control remaining
# Method: The plates were organized with columns 3–22 containing the compounds; the remaining columns were used for reaction controls including substrate only and substrate with enzyme but no compound (Figure 3Aii). The PLpro enzyme was pre-incubated with the compounds for 10 min, and then the reaction was initiated by the addition of substrate. […] We incubated the inhibitors with PLpro before the enzymatic reaction so that the slow-binding inhibitors will not be missed out [21]. […] Fluorescence was read on a Spark multimode microplate reader (Tecan) with an excitation wavelength at 330 nm and emission wavelength at 420 nm. […] An amount of 5 µl of the enzyme was pre-incubated with compounds for 10 min before the addition of 15 µl substrate. Fluorescence was monitored at 2 min for 20 min with 3 min intervals giving a total of seven readings.
# [2] = target: T1, SARS-CoV-2 PLpro (nsp3 1564–1878); assay: biochemical; parameters: FRET-quenched peptide (Pro3) cleavage by PLpro, 10 min pre-incubation, slope over 20 min, normalised to no-compound control; settings: low concentration screen, read-out: % of control remaining
smiles,measurement,setting,value
O=C(O)CCC/C=C\C[C@@H]1[C@@H](/C=C/[C@@H](O)COc2cccc(C(F)(F)F)c2)[C@H](O)C[C@@H]1O (racemic) [Fluprostenol],remaining activity at 3.75 µM,[1]; Well no.=4528,99.8%
same,remaining activity at 1.25 µM,[2]; Well no.=4528,96.4%
CCCc1nn(C)c2c(=O)[nH]c(-c3cc(S(=O)(=O)N4CCN(C)CC4)ccc3OCC)nc12 [Sildenafil citrate],remaining activity at 3.75 µM,[1]; Well no.=4821,94.2%
same,remaining activity at 1.25 µM,[2]; Well no.=4821,94.7%
COC1=C(OC)C(=O)C(CCCCCCCCCCO)=C(C)C1=O [Idebenone],remaining activity at 3.75 µM,[1]; Well no.=1616,99.2%
same,remaining activity at 3.75 µM,[1]; Well no.=3859,105%
same,remaining activity at 1.25 µM,[2]; Well no.=1616,103%
same,remaining activity at 1.25 µM,[2]; Well no.=3859,104%
CCOc1ccc(-c2cn(C)nc2-c2cc(OC)c(OC)c(OC)c2)cc1 [Tubulin inhibitor 1],remaining activity at 3.75 µM,[1]; Well no.=7162,97.8%
same,remaining activity at 1.25 µM,[2]; Well no.=7162,104%
CC(C)[C@H](N)C(=O)N1CCC[C@H]1C(=O)N1CCC[C@H]1C(=O)O [H-Val-Pro-Pro-OH (TFA)],remaining activity at 3.75 µM,[1]; Well no.=7546,100%
same,remaining activity at 1.25 µM,[2]; Well no.=7546,100%
Cn1c(=O)cc(N2CCC[C@@H](N)C2)n(Cc2cc(F)ccc2C#N)c1=O [Trelagliptin],remaining activity at 3.75 µM,[1]; Well no.=8480,98.9%
same,remaining activity at 1.25 µM,[2]; Well no.=8480,99.1%
CNc1nc(NCc2ccc(NS(C)(=O)=O)cc2Cl)cc(-c2ccccn2)n1 [TC-G-1008],remaining activity at 3.75 µM,[1]; Well no.=7769,95.1%
same,remaining activity at 1.25 µM,[2]; Well no.=7769,98.1%
CCOC(=O)C1=C[C@]2(CC)CCCN3CCc4c(n1c1ccccc41)[C@@H]32 [Vinpocetine],remaining activity at 3.75 µM,[1]; Well no.=1432,102%
same,remaining activity at 3.75 µM,[1]; Well no.=3228,108%
same,remaining activity at 1.25 µM,[2]; Well no.=1432,99%
same,remaining activity at 1.25 µM,[2]; Well no.=2158,98.7%
same,remaining activity at 1.25 µM,[2]; Well no.=3228,103%
CO[C@H]1C[C@@H]2CC[C@@H](C)[C@@](O)(O2)C(=O)C(=O)N2CCCC[C@H]2C(=O)O[C@H]([C@H](C)C[C@@H]2CC[C@@H](OC(=O)C(C)(CO)CO)[C@H](OC)C2)CC(=O)[C@H](C)/C=C(\C)[C@@H](O)[C@@H](OC)C(=O)[C@H](C)C[C@H](C)/C=C/C=C/C=C/1C [Temsirolimus],remaining activity at 3.75 µM,[1]; Well no.=8412,91.8%
same,remaining activity at 1.25 µM,[2]; Well no.=8412,95.2%
O=C(O)c1cccnc1 [Niacin],remaining activity at 3.75 µM,[1]; Well no.=6401,96.9%
same,remaining activity at 1.25 µM,[2]; Well no.=6401,102%
CN1CCN(c2c(F)cc3c(=O)c(C(=O)O)cn(CCF)c3c2F)CC1 [Fleroxacin],remaining activity at 3.75 µM,[1]; Well no.=2120,96.3%
same,remaining activity at 1.25 µM,[2]; Well no.=2120,92.9%
O=C(O)CCCc1ccccc1 [Sodium Phenylbutyrate],remaining activity at 3.75 µM,[1]; Well no.=1582,103%
same,remaining activity at 1.25 µM,[2]; Well no.=1582,106%
Nc1ccn([C@@H]2O[C@H](CO)[C@@H](O)[C@H]2O)c(=O)n1 [Cytidine],remaining activity at 3.75 µM,[1]; Well no.=5054,100%
same,remaining activity at 3.75 µM,[1]; Well no.=6205,110%
same,remaining activity at 3.75 µM,[1]; Well no.=8014,97.3%
same,remaining activity at 1.25 µM,[2]; Well no.=5054,97.5%
same,remaining activity at 1.25 µM,[2]; Well no.=6205,108%
same,remaining activity at 1.25 µM,[2]; Well no.=8014,98.6%
CC(=O)c1c(C)c2cnc(Nc3ccc(N4CCNCC4)cn3)nc2n(C2CCCC2)c1=O [PD 0332991 (Palbociclib) Isethionate],remaining activity at 3.75 µM,[1]; Well no.=4882,101%
same,remaining activity at 1.25 µM,[2]; Well no.=4882,101%
O=C(O)[C@H](CC(=O)N1C[C@H]2CCCC[C@H]2C1)Cc1ccccc1 [Mitiglinide calcium],remaining activity at 3.75 µM,[1]; Well no.=4888,96.8%
same,remaining activity at 1.25 µM,[2]; Well no.=4888,95.5%
COc1ccccc1Oc1c(NS(=O)(=O)c2ccc(C)cn2)nc(-c2ccncc2)nc1OC [Avosentan],remaining activity at 3.75 µM,[1]; Well no.=7281,100%
same,remaining activity at 1.25 µM,[2]; Well no.=7281,102%
COc1ccc2c(c1)C(c1ccc(F)cc1)=C(CN1CCCC1)CO2 [AX-024 hydrochloride],remaining activity at 3.75 µM,[1]; Well no.=6930,95.2%
same,remaining activity at 1.25 µM,[2]; Well no.=6930,97%
CCOC(=O)[C@@H](N)Cc1ccc(-c2cc(O[C@H](c3ccc(Cl)cc3-n3ccc(C)n3)C(F)(F)F)nc(N)n2)cc1 [Telotristat Etiprate (LX 1606 Hippurate)],remaining activity at 3.75 µM,[1]; Well no.=8288,92.1%
same,remaining activity at 1.25 µM,[2]; Well no.=8288,92.6%
CCCCCCCCCCCCCCCCn1cc[n+](Cc2ccccc2)c1C [NH 125 - 1-Hexadecyl-2-methyl-3-(phenylmethyl)-1H-imidazolium iodide],remaining activity at 3.75 µM,[1]; Well no.=2336,97%
same,remaining activity at 1.25 µM,[2]; Well no.=2336,97.5%
C=CC[C@]1(O)CC[C@H]2[C@@H]3CCC4=CC(=O)CCC4=C3C=C[C@@]21C [Altrenogest],remaining activity at 3.75 µM,[1]; Well no.=5020,93.9%
same,remaining activity at 1.25 µM,[2]; Well no.=5020,94.3%
O=C(O)CN(CCN(CC(=O)O)Cc1ccccc1O)Cc1ccccc1O,remaining activity at 3.75 µM,[1]; Well no.=3846,103%
same,remaining activity at 1.25 µM,[2]; Well no.=3846,106%
CCCNC(C)C(=O)Nc1ccccc1C (stereo not shown) [Prilocaine hydrochloride],remaining activity at 3.75 µM,[1]; Well no.=1355,98.5%
same,remaining activity at 1.25 µM,[2]; Well no.=1355,97.2%
"CCCCC/C=C\C/C=C\C/C=C\CCCCC(=O)O [6(Z), 9(Z), 12(Z)-Octadecatrienoic Acid]",remaining activity at 3.75 µM,[1]; Well no.=4360,107%
same,remaining activity at 1.25 µM,[2]; Well no.=4360,107%
Cc1ccc(Oc2ccnc3cc(-c4cnn(C5CCNCC5)c4)ccc23)cc1 [HS-1371],remaining activity at 3.75 µM,[1]; Well no.=6820,85.5%
same,remaining activity at 1.25 µM,[2]; Well no.=6820,91.1%
CN(CCOc1ccc(CC2SC(=O)NC2=O)cc1)c1ccccn1 (stereo not shown) [Rosiglitazone HCl],remaining activity at 3.75 µM,[1]; Well no.=4758,97.3%
same,remaining activity at 1.25 µM,[2]; Well no.=4758,102%
Cc1ccnc(NS(=O)(=O)c2ccc(N)cc2)n1 [Sulfamerazine],remaining activity at 3.75 µM,[1]; Well no.=4941,83.3%
same,remaining activity at 3.75 µM,[1]; Well no.=8644,92.4%
same,remaining activity at 1.25 µM,[2]; Well no.=4941,92.6%
same,remaining activity at 1.25 µM,[2]; Well no.=8644,94.8%
Cc1cc(F)c(Nc2ncnc3cc(OCc4ccccc4)ccc23)cc1O [ZM 323881 hydrochloride - 5-((7-Benzyloxyquinazolin-4-yl)amino)-4-fluoro-2-methylphenol hydrochloride],remaining activity at 3.75 µM,[1]; Well no.=2538,92%
same,remaining activity at 1.25 µM,[2]; Well no.=2538,91.5%
Oc1cc(O)c2c(c1)O[C@H](c1ccc(O)c(O)c1)[C@@H](O)C2 [(+)-Catechin Hydrate],remaining activity at 3.75 µM,[1]; Well no.=283,99.7%
same,remaining activity at 1.25 µM,[2]; Well no.=283,98%
O=C(O)c1cc(=O)[nH]c(=O)[nH]1 [Orotic acid (6-Carboxyuracil)],remaining activity at 3.75 µM,[1]; Well no.=8146,98.3%
same,remaining activity at 1.25 µM,[2]; Well no.=8146,105%
CN(C)CC#Cc1ccc(OCCCc2sc(N3CCc4cccc(C(=O)Nc5nc6ccccc6s5)c4C3)nc2C(=O)O)c(F)c1 [A-1155463],remaining activity at 3.75 µM,[1]; Well no.=6344,97.3%
same,remaining activity at 1.25 µM,[2]; Well no.=6344,96.3%
O=c1cc[nH]c(=O)[nH]1 [Uracil],remaining activity at 3.75 µM,[1]; Well no.=7023,102%
same,remaining activity at 1.25 µM,[2]; Well no.=7023,103%

# — PMC8286840, “Identifying SARS-CoV-2 antiviral compounds by screening for small molecule inhibitors of Nsp3 papain-like protease” (Biochemical Journal, 2021)
